Structures are written as SMILES. Where two headings read alike, the source gives them in different places.

In data set [1] the test system is ALI-HBECs. Also noted: species or system human. The conditions noted are these: for Fraction of parent metabolites that are M1 / Absorption into cells: optimization dataset. The source says: A dosimetry model was developed to contextualize how PAHs interact with ALI-HBECs during exposure (Fig. 1). The model describes the time course dosimetry of two PAHs: […] Model parameters for cell and media compartments were characterized based on measurements for the ALI-HBEC culture system described by […] Technologies (Table 2). […] [28], [67]. We initially modeled parent and metabolite transport among compartments as passive diffusion using ordinary differential equations. […] Consistent with these previous observations, we observed induction of CYP1A1 activity as measured by P450-GloTM (see Results). […] CYP1A1 activity was included as a coefficient of the rate of metabolism for PAH parent which could be triggered by an induction switch. The switch allows for metabolism induction to be turned on or off in future uses of the model. When turned off, the CYP term is set to 1 and the rate of metabolism behaves as described above. […] Parameters were optimized against the optimization UPLC dataset. Parent absorption and metabolism were optimized together against data for BAP in cells. Parent permeability and volatilization were optimized together against data for BAP in media. […] All model parameters and CYP1A1 rational function coefficients were optimized using a maximum log likelihood objective with the Nelder-Mead algorithm and starting values set by visual inspection. The model was built in R version 4.4.2 (R Foundation for Statistical Computing, Vienna, Austria) using the RMagnolia R package version 1.3.15 (https://www.magnoliasci.com/rmagnolia/). The Akaike Information Criterion (AIC) was used for selecting the best model fit for CYP1A1 activity, inclusion of metabolism induction, and inclusion of active efflux. The final model with metabolism induction and active efflux of the metabolite was validated by comparison to data collected in the validation UPLC dataset.

The nature of data set [2]: Mass balance experiments: BAP and metabolites in cell, media and mucus fractions by UPLC. In kind it is in vitro ADME, human. The conditions noted are these: human. The procedure:
(§1) Normal HBECs (Lonza, Basel, Switzerland) were expanded to passage 4 in PneumaCult™-Ex Plus medium and transferred to 12-well plates with 12 mm transwell inserts ([…] Technologies, Vancouver, BC, Canada) and 30,000 cells per insert or 24-well plates with 6.5 mm transwell inserts ([…] Technologies, Vancouver, BC, Canada) and 9000 cells per insert for differentiation at the ALI using PneumaCult™-ALI medium. Cells were cultured at the ALI for 25 days at 37°C and 5 % CO2 with media changes every 2–3 days and mucus washes using DPBS on the apical surface once a week starting at 14 days post air-lifting to maintain healthy ALI cultures. Just before exposure, media was changed and ALI-HBECs were apically washed with DPBS or ALI media to remove mucus.
(§2) Glass pipettes were used for all collection and extraction steps to reduce loss of compound from binding to plastic. ALI media was used instead of DPBS for all rinse and collection steps due to interference with the fluorescence detector. At each timepoint, basal media was collected and the bottom of the insert rinsed, the apical surface was washed and rinses collected, and cells were collected by scraping with a stainless-steel spatula and rinsed from the insert. All collected fractions were flash frozen in liquid nitrogen and stored at −80°C.
(§3) For Phase 2 metabolite analysis, samples were incubated with β-glucuronidase to deconjugate glucuronide and […] metabolites following methods described by Combie et al.. For cell fractions, 0.1 mm glass beads were added to the sample and placed in a Next Advance Bullet Blender™ 24 (Troy, NY) for 3 min to fully lyse cells and increase recovery. All cell, media, and mucus samples were transferred to amber glass vials and adjusted to pH 5 with acetic acid. β-glucuronidase reconstituted in water was added to samples at 5000 U/mL, and samples were incubated at 65°C for 3 h. Samples were allowed to cool to room temperature before continuing with extractions.
(§4) All samples were spiked with DBC as an internal standard for a final concentration of 2.5 μM to correct compound recovery for extraction efficiency. Cell fractions not previously incubated with β-glucuronidase were lysed by blending with 0.1 mm glass beads. All cell, media, and mucus samples were transferred to glass vials, vortexed and sonicated in ethyl acetate, and incubated for 2 h at −20°C to precipitate any protein. Samples were centrifuged at 2000 rcf for 10 min, and the ethyl acetate supernatant was collected. This was repeated for a total of three rounds. Ethyl acetate was evaporated to dryness under nitrogen gas, samples were reconstituted in 100 μL ACN, and samples were stored at −80°C.
(§5) Glucuronide metabolite formation was estimated as the difference between samples incubated with and without β-glucuronidase at similar timepoints.

The test system of data set [3] is ALI-HBECs. The data set is described as above. In kind it is in vitro ADME, human. The procedure:
as §1, §2, §3, §4, §5

The test system of data set [4] is CYP1A1. Nature of the data set: RNA-sequencing, differential expression of CYP1A1. Format: cell-based, human. The conditions noted are these: 24 h, BAP 0.076-3 µg/cm^2, vs vehicle control. The procedure: (§6) Cells were collected from inserts and lysed with RLT lysis buffer with 1 % β-mercaptoethanol using the RNeasy Mini Kit (Qiagen, Hilden, Germany) and stored at −80 °C. RNA was isolated from cell lysate using the RNeasy Mini Kit per the manufacturer’s protocol and was quantified on a Synergy HTX (BioTek, Winooski, VT, USA) plate reader equipped with a Take3 module (BioTek, Winooski, VT, USA). […] For library construction, mRNA was poly-A selected and libraries were prepared as previously described by Dasgupta et al.. High quality reads with a sequencing length greater than 150 bp were annotated and mapped to the human reference genome GRCh38.p14 using HISAT2, count tables were generated with feature Counts, and differential expression was conducted using the DESeq2 R package version 1.46.0 compared to vehicle control, [64]. In vehicle exposed samples, the fragment per kilobase million (FPKM) was calculated for each gene, and genes with an FPKM > 1 were considered constitutively expressed, [102], [114]. Genes associated with xenobiotic metabolism and transport were identified by pathway enrichment analysis in MetaCore (GeneGo, Thomson Reuters, Carlsbad, CA) and by literature search.

The subject of data set [5] is genes related to xenobiotic metabolism and transport in ALI-HBECs. Nature of the data set: RNA-sequencing, differentially expressed xenobiotic transport and metabolism genes. In kind it is cell-based, human. Particulars: 24 h, by at least one BAP treatment vs vehicle control. How it is done: as §6
Data set [6] deals with CYP1A1. Nature of the data set: CYP1A1 activity, P450-Glo CYP1A1 Assay in ALI-HBECs. Format: cell-based, human. The conditions noted are these: BAP 2.26 µg/cm^2, 0-48 h.
Protocol: CYP1A1 activity was measured in ALI-HBECs using the P450-Glo™ CYP1A1 Assay System (Promega, Madison, WI). The protocol was adapted to assess CYP1A1 activity in ALI-HBECs. Luciferin-CEE solution was diluted in DPBS, ALI-HBEC basal media was replaced with DPBS, and 50 µL of Luciferin-CEE solution was added to the apical surface. […] Luminescence was recorded on a Synergy HTX plate reader. Cell viability was measured using the CellTiter-Glo® (CTG) Luminescent Cell Viability Assay (Promega, Madison, WI) per manufacturer’s protocol, and luminescence was recorded on a Synergy HTX plate reader. Background luminescence was subtracted from all data, and CYP1A1 activity was normalized to cell viability for each sample.
Where [7] appears, read: M1 parameter, Active Efflux model.
[8] abbreviates: M1 parameter, Active Efflux model, set as parent value.
The mark [9] stands for this setting: M1 parameter, Passive Diffusion model.
Where [10] appears, read: M1 parameter, Passive Diffusion model, set as parent value.
[11] abbreviates: parent parameter, No Metabolism Induction.
[12] abbreviates: parent parameter, With Metabolism Induction.

In the case of `OC1C=Cc2c(cc3ccc4cccc5ccc2c3c45)C1O` (centres unmarked) [7,8-dihydrodiol, BAP-7,8-dihydrodiol], in data set [1] (setting [7]), the “Active efflux into media” value came out at 0.000869 L/h, the “Active efflux into mucus” value was 0.000445 L/h, the Clearance by metabolism stood at 0.79 L/hr/kg^3/4 and the “Fraction of parent metabolites that are M1” value was 0.099. Further, in data set [1] (setting [8]), the Volatilization from media amounted to 0.00185 h⁻¹ and the Volatilization from mucus was found to be 0.00185 h⁻¹. Further, in data set [1] (setting [9]), the Clearance by metabolism came to 3.93 L/hr/kg^3/4, the Permeability of cells was found to be 16.9 ×10⁻⁶ cm/s and the “Fraction of parent metabolites that are M1” value was found to be 0.022. Also, in data set [1] (setting [10]), the Volatilization from media is 0.00185 h⁻¹ and the Volatilization from mucus was 0.00185 h⁻¹. In addition, the “Fraction of M1 formed from parent metabolites” value in data set [1] (model temporarily optimized to the validation set (BAP 4.67 µg/cm^2)) came to 0.05.

`c1ccc2c(c1)cc1ccc3cccc4ccc2c1c34` [BAP, Benzo[a]pyrene]: in data set [2], the recovery at 0 h, 2.26 µg/cm^2 is 85.2% and the recovery at 0 h, 4.67 µg/cm^2 turned out to be 87.5%. In data set [3] (after exposure), the “time by which BAP was cleared from cells” value is listed as at most 48 h. For the same compound, the “time before BAP started releasing into the media fraction” value in data set [3] (optimization dataset) is above 4 h. Further, the “average BAP recovery at 0 h (amount)” value in data set [3] (optimization dataset, BAP 2.26 µg/cm^2) stood at 8.6 nmol. The “average BAP recovery at 0 h (amount)” value in data set [3] (validation dataset, BAP 4.67 µg/cm^2) was determined as 16.8 nmol. Besides, in data set [1] (setting [11]), the Volatilization from media is 0.00436 h⁻¹ and the Absorption into cells amounted to 0.47 h⁻¹. For the same compound, in data set [1] (setting [12]), the Volatilization from media amounted to 0.00185 h⁻¹ and the Absorption into cells was determined as 0.24 h⁻¹. The “CYP1A1 average induction (mRNA)” value in data set [4] came to 12.6 fold. Also, in data set [5], the “number of genes related to xenobiotic metabolism significantly differentially expressed” value was 38 genes and the “number of genes related to xenobiotic transport significantly differentially expressed” value turned out to be 8 genes. Further, the “time of maximum CYP1A1 activity” value in data set [6] was found to be 8 h.

Source of the values: PMC12517105 (Toxicology Reports, 2025).
